Test results reported in US20250312352A1, “GLP-1R MODULATING COMPOUNDS” (Gilead Sciences, Inc., priority 2021, published 2025).
pEC50: −log10 of the molar value.

The compounds below were run against T1, GLP-1R (Homo sapiens, UniProt P43220) (assay: GLP-1R activation cAMP assay (Assay 1 or Assay 2)). Details: cAMP increase in CHO cells stably expressing GLP-1R; compounds run on one of the two cAMP assays.
T1 construct: host or cells: CHO cells
Format: cell-based
Procedure, shortened: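 EC50 values come from a sigmoidal fit of HTRF-detected cAMP rise versus log agonist concentration. GLP-1R-expressing CHO cells, equilibrated 1 h at 37 °C in HBSS with HEPES and BSA, received a 10-point compound dose series for 30 min before detection.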

T1 sequence (P43220 24-463): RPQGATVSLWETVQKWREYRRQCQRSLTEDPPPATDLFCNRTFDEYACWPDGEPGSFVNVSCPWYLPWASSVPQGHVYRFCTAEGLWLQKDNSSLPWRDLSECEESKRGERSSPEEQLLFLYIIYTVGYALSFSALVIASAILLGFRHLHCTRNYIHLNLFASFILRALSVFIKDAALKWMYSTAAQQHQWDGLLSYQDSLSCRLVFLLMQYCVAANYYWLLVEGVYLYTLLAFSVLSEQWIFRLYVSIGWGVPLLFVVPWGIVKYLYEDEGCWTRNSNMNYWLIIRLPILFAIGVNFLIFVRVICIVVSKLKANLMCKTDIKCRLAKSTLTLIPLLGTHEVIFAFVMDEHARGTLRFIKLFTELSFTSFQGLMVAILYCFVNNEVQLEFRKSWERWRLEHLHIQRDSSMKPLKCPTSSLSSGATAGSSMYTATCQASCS

Row | Compound | pEC50
1 | N#Cc1sc(COc2cccc(-c3cc(F)c(Cc4nc5ccc(C(=O)O)cc5n4C[C@@H]4CCO4)cc3F)n2)cc1F [Example 205, 2-[[4-[6-[(5-cyano-4-fluoro-2-thienyl)methoxy]-2-pyridyl]-2,5-difluoro-phenyl]methyl]-3-[[(2S)-oxetan-2-yl]methyl]benzimidazole-5-carboxylic acid] | 9.60
2 | Cn1nc(COc2cccc(-c3cc(F)c(Cc4nc5ccc(C(=O)O)cc5n4C[C@@H]4CCO4)cc3F)n2)cc1C(N)=O [Example 206, (S)-2-(4-(6-((5-carbamoyl-1-methyl-1H-pyrazol-3-yl)methoxy)pyridin-2-yl)-2,5-difluorobenzyl)-1-(oxetan-2-ylmethyl)-1H-benzo[d]imidazole-6-carboxylic acid] | 7.36
3 | Cn1nc(COc2cccc(-c3cc(F)c(Cc4nc5ccc(C(=O)O)cc5n4C[C@@H]4CCO4)cc3F)n2)cc1C#N [Example 207, (S)-2-(4-(6-((5-cyano-1-methyl-1H-pyrazol-3-yl)methoxy)pyridin-2-yl)-2,5-difluorobenzyl)-1-(oxetan-2-ylmethyl)-1H-benzo[d]imidazole-6-carboxylic acid] | 9.34
4 | NC(=O)c1cc(F)c(COc2nc(-c3cc(F)c(Cc4nc5c(F)cc(C(=O)O)cc5n4C[C@@H]4CCO4)cc3F)ccc2F)cn1 [Example 208, (S)-2-(4-(6-((6-carbamoyl-4-fluoropyridin-3-yl)methoxy)-5-fluoropyridin-2-yl)-2,5-difluorobenzyl)-4-fluoro-1-(oxetan-2-ylmethyl)-1H-benzo[d]imidazole-6-carboxylic acid] | 10.70
5 | NC(=O)c1cnc(COc2cccc(-c3cc(F)c(Cc4nc5ccc(C(=O)O)cc5n4C[C@@H]4CCO4)cc3F)n2)cn1 [Example 209, (S)-2-(4-(6-((5-carbamoylpyrazin-2-yl)methoxy)pyridin-2-yl)-2,5-difluorobenzyl)-1-(oxetan-2-ylmethyl)-1H-benzo[d]imidazole-6-carboxylic acid] | 9.85
6 | O=C(O)c1ccc2nc(Cc3cc(F)c(-c4cccc(OCc5ccc(-n6cnc(C7CC7)n6)nc5)n4)cc3F)n(C[C@@H]3CCO3)c2c1 [Example 211, 2-[[4-[6-[[6-(3-cyclopropyl-1,2,4-triazol-1-yl)-3-pyridyl]methoxy]-2-pyridyl]-2,5-difluoro-phenyl]methyl]-3-[[(2S)-oxetan-2-yl]methyl]benzimidazole-5-carboxylic acid] | 9.29
7 | O=C(O)c1ccc2nc(Cc3cc(F)c(-c4cccc(OCc5ccc(-n6cc(C7CC7)nn6)nc5)n4)cc3F)n(C[C@@H]3CCO3)c2c1 [Example 212, (S)-2-(4-(6-((6-(4-cyclopropyl-1H-1,2,3-triazol-1-yl)pyridin-3-yl)methoxy)pyridin-2-yl)-2,5-difluorobenzyl)-1-(oxetan-2-ylmethyl)-1H-benzo[d]imidazole-6-carboxylic acid] | 10.00
8 | CC(C)(C)OC(=O)N[C@H]1C[C@@H](n2cc(-c3ccc(COc4cccc(-c5cc(F)c(Cc6nc7ccc(C(=O)O)cc7n6C[C@@H]6CCO6)cc5F)n4)c(F)c3)nn2)C1 [Example 219, 2-(4-(6-((4-(1-((1s,3s)-3-((tert-butoxycarbonyl)amino)cyclobutyl)-1H-1,2,3-triazol-4-yl)-2-fluorobenzyl)oxy)pyridin-2-yl)-2,5-difluorobenzyl)-1-(((S)-oxetan-2-yl)methyl)-1H-benzo[d]imidazole-6-carboxylic acid] | 9.07
9 | COCCn1c(Cc2cc(F)c(-c3cccc(OCc4ccc(C#CC(C)(C)S(C)(=O)=O)nc4)n3)cc2F)nc2ccc(C(=O)O)cc21 [Example 221, 2-[[2,5-difluoro-4-[6-[[6-(3-methyl-3-methylsulfonyl-but-1-ynyl)-3-pyridyl]methoxy]-2-pyridyl]phenyl]methyl]-3-(2-methoxyethyl)benzimidazole-5-carboxylic acid] | 5.97

Other lines, results leading:

Row | pEC50 | Compound
10 | 7.81 | O=C(O)c1ccc2nc(Cc3cc(F)c(-c4cccc(OCc5cn(C6CC6)nn5)n4)cc3F)n(C[C@@H]3CCO3)c2c1 [Example 210, 2-[[4-[6-[(1-cyclopropyltriazol-4-yl)methoxy]-2-pyridyl]-2,5-difluoro-phenyl]methyl]-3-[[(2S)-oxetan-2-yl]methyl]benzimidazole-5-carboxylic acid]
11 | 9.32 | O=C(O)c1ccc2nc(Cc3cc(F)c(-c4cccc(OCc5ccc(-c6cn([C@@H]7CCOC7)nn6)cc5F)n4)cc3F)n(C[C@@H]3CCO3)c2c1 [Example 213]
12 | 10.10 | O=C(O)c1ccc2nc(Cc3cc(F)c(-c4cccc(OCc5ccc(-c6cn(C7CC7)nn6)cc5F)n4)cc3F)n(C[C@@H]3CCO3)c2c1 [Example 214, (S)-2-(4-(6-((4-(1-cyclopropyl-1H-1,2,3-triazol-4-yl)-2-fluorobenzyl)oxy)pyridin-2-yl)-2,5-difluorobenzyl)-1-(oxetan-2-ylmethyl)-1H-benzo[d]imidazole-6-carboxylic acid]
13 | 9.74 | O=C(O)c1ccc2nc(Cc3cc(F)c(-c4cccc(OCc5ccc(-c6cn(C7COC7)nn6)cc5F)n4)cc3F)n(C[C@@H]3CCO3)c2c1 [Example 215, (S)-2-(2,5-difluoro-4-(6-((2-fluoro-4-(1-(oxetan-3-yl)-1H-1,2,3-triazol-4-yl)benzyl)oxy)pyridin-2-yl)benzyl)-1-(oxetan-2-ylmethyl)-1H-benzo[d]imidazole-6-carboxylic acid]
14 | 9.14 | O=C(O)c1ccc2nc(Cc3cc(F)c(-c4cccc(OCc5ccc(-c6cn(C78CC(C7)C8)nn6)cc5F)n4)cc3F)n(C[C@@H]3CCO3)c2c1 [Example 216, (S)-2-(4-(6-((4-(1-(bicyclo[1.1.1]pentan-1-yl)-1H-1,2,3-triazol-4-yl)-2-fluorobenzyl)oxy)pyridin-2-yl)-2,5-difluorobenzyl)-1-(oxetan-2-ylmethyl)-1H-benzo[d]imidazole-6-carboxylic acid]
15 | 9.57 | O=C(O)c1ccc2nc(Cc3cc(F)c(-c4cccc(OCc5ccc(-c6cn([C@H]7CCOC7)nn6)cc5F)n4)cc3F)n(C[C@@H]3CCO3)c2c1 [Example 217, 2-(2,5-difluoro-4-(6-((2-fluoro-4-(1-((S)-tetrahydrofuran-3-yl)-1H-1,2,3-triazol-4-yl)benzyl)oxy)pyridin-2-yl)benzyl)-1-(((S)-oxetan-2-yl)methyl)-1H-benzo[d]imidazole-6-carboxylic acid]
16 | 9.10 | O=C(O)c1ccc2nc(Cc3cc(F)c(-c4cccc(OCc5ccc(-c6cn(C7CCOCC7)nn6)cc5F)n4)cc3F)n(C[C@@H]3CCO3)c2c1 [Example 218, (S)-2-(2,5-difluoro-4-(6-((2-fluoro-4-(1-(tetrahydro-2H-pyran-4-yl)-1H-1,2,3-triazol-4-yl)benzyl)oxy)pyridin-2-yl)benzyl)-1-(oxetan-2-ylmethyl)-1H-benzo[d]imidazole-6-carboxylic acid]
17 | 8.68 | CN1CC(n2cc(-c3ccc(COc4cccc(-c5cc(F)c(Cc6nc7ccc(C(=O)O)cc7n6C[C@@H]6CCO6)cc5F)n4)c(F)c3)nn2)C1 [Example 220, (S)-2-(2,5-difluoro-4-(6-((2-fluoro-4-(1-(1-methylazetidin-3-yl)-1H-1,2,3-triazol-4-yl)benzyl)oxy)pyridin-2-yl)benzyl)-1-(oxetan-2-ylmethyl)-1H-benzo[d]imidazole-6-carboxylic acid]
